Patent US6479435B1, “Diaryl ethers and processes for their preparation and herbicidal and desiccant compositions containing them” (ISK Americas Incorporated, priority 1997, dated 2002)

Legend:
Assay type in all cases: in vivo
[1] = test system: field corn (Zea mays L., var. Dekalb 535, CORN); test: Post-emerge greenhouse test, crop damage rating; conditions: 14 days after application
Summary of the method: (§1)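 Scores use a 0 (no damage) to 100 (complete kill) scale, taken 14 days after a foliar spray. Acetone solutions with 0.25% v/v non-ionic surfactant were applied by track sprayer at 187 l/ha and 63-1000 g ai/ha to bottom-watered 2-3 leaf plants.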

[2] = test system: upland rice (Oryza sp., var.Tebonnet, RICE); test: Post-emerge greenhouse test, crop damage rating; conditions: 14 days after application
Summary of the method: as §1

[3] = test system: field corn (Zea mays L., var. Dekalb 535, CORN); test: Pre-emerge greenhouse test, crop damage rating; conditions: 14 days after application, rating scale 0-100
Summary of the method: (§2)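 Visual 0–100 injury rating (100 = all plants dead) taken 14 days after treatment. Rates of 125–1000 g ai/ha in acetone, 187 l/ha, were sprayed onto soil one day post-sowing; pots were surface-watered to incorporate, then bottom-watered.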

[4] = test system: upland rice (Oryza sp., var.Tebonnet, RICE); test: Pre-emerge greenhouse test, crop damage rating; conditions: 14 days after application, rating scale 0-100
Summary of the method: as §2

[5] = test system: green foxtail (Setaria viridis, SETVI); test: Post-emerge greenhouse herbicide test, phytotoxicity rating; conditions: 14 days after application
Summary of the method: as §1

[6] = test system: lambsquarters (Chenopodium album, CHEAL); test: as above; conditions: 14 days after application
Summary of the method: as §1

[7] = test system: velvetleaf (Abutilon theophrasti, ABUTH); test: as above; conditions: 14 days after application
Summary of the method: as §1

[8] = test system: ivyleaf morningglory (Ipomoea hederacea, IPOHE); test: as above; conditions: 14 days after application
Summary of the method: as §1

[9] = test system: barnyardgrass (Echinochloa crusgalli, ECHCG); test: as above; conditions: 14 days after application
Summary of the method: as §1

[10] = test system: large crabgrass (Digitaria sanguinalis, DIGSA); test: as above; conditions: 14 days after application
Summary of the method: as §1

[11] = test system: redroot pigweed (Amaranthus retroflexus, AMARE); test: as above; conditions: 14 days after application
Summary of the method: as §1

[12] = test system: Johnsongrass (Sorghum halepense, SORHA); test: as above; conditions: 14 days after application
Summary of the method: as §1

[13] = test system: green foxtail (Setaria viridis, SETVI); test: Pre-emerge greenhouse herbicide test, phytotoxicity rating; conditions: 14 days after application, rating scale 0-100
Summary of the method: as §2

[14] = test system: sicklepod (Cassia obtusifolia, CASOB); test: as above; conditions: 14 days after application, rating scale 0-100
Summary of the method: as §2

[15] = test system: lambsquarters (Chenopodium album, CHEAL); test: as above; conditions: 14 days after application, rating scale 0-100
Summary of the method: as §2

[16] = test system: velvetleaf (Abutilon theophrasti, ABUTH); test: as above; conditions: 14 days after application, rating scale 0-100
Summary of the method: as §2

[17] = test system: ivyleaf morningglory (Ipomoea hederacea, IPOHE); test: as above; conditions: 14 days after application, rating scale 0-100
Summary of the method: as §2

[18] = test system: common ragweed (Ambrosia artemisiifolia L., AMBEL); test: as above; conditions: 14 days after application, rating scale 0-100
Summary of the method: as §2

[19] = test system: barnyardgrass (Echinochloa crusgalli, ECHCG); test: as above; conditions: 14 days after application, rating scale 0-100
Summary of the method: as §2

[20] = test system: large crabgrass (Digitaria sanguinalis, DIGSA); test: as above; conditions: 14 days after application, rating scale 0-100
Summary of the method: as §2

[21] = test system: redroot pigweed (Amaranthus retroflexus, AMARE); test: as above; conditions: 14 days after application, rating scale 0-100
Summary of the method: as §2

[22] = test system: Johnsongrass (Sorghum halepense, SORHA); test: as above; conditions: 14 days after application, rating scale 0-100
Summary of the method: as §2

[23] = test system: soybean (Glycine max L., var. Pella 86, SOY); test: Pre-emerge greenhouse test, crop damage rating; conditions: 14 days after application, rating scale 0-100
Summary of the method: as §2

[24] = test system: common ragweed (Ambrosia artemisiifolia L., AMBEL); test: Post-emerge greenhouse herbicide test, phytotoxicity rating; conditions: 14 days after application
Summary of the method: as §1

[25] = test system: soybean (Glycine max L., var. Pella 86, SOY); test: Post-emerge greenhouse test, crop damage rating; conditions: 14 days after application
Summary of the method: as §1

`N#Cc1ccccc1Oc1cc(-n2c(=O)n3n(c2=S)CCCC3)c(F)cc1Cl` [Compound 8-7] was tested, and the “CORN crop damage rating (0-100)” value ([1]; 63 g al/ha) was 20, the “CORN crop damage rating (0-100)” value ([1]; 500 g al/ha) was 0 and the “RICE crop damage rating (0-100)” value ([2]; 63 g al/ha) was 10. The “RICE crop damage rating (0-100)” value ([2]; 500 g al/ha) was 50, the “crop damage rating CORN” value ([3]; 125 g ai/ha) was 0 and the “crop damage rating CORN” value ([3]; 500 g ai/ha) was 10. The “crop damage rating RICE” value ([4]; 125 g ai/ha) was 20, the “crop damage rating RICE” value ([4]; 500 g ai/ha) was 50 and the “SETVI phytotoxicity rating (0-100)” value ([5]; 63 g al/ha) was 0. For the same compound, the “SETVI phytotoxicity rating (0-100)” value ([5]; 500 g al/ha) was 0, the “CHEAL phytotoxicity rating (0-100)” value ([6]; 63 g al/ha) was 90 and the “CHEAL phytotoxicity rating (0-100)” value ([6]; 500 g al/ha) was 100. For the same compound, the “ABUTH phytotoxicity rating (0-100)” value ([7]; 63 g al/ha) was 100, the “ABUTH phytotoxicity rating (0-100)” value ([7]; 500 g al/ha) was 100 and the “IPOHE phytotoxicity rating (0-100)” value ([8]; 63 g al/ha) was 100. For the same compound, the “IPOHE phytotoxicity rating (0-100)” value ([8]; 500 g al/ha) was 100, the “ECHCG phytotoxicity rating (0-100)” value ([9]; 63 g al/ha) was 0 and the “ECHCG phytotoxicity rating (0-100)” value ([9]; 500 g al/ha) was 20. The “DIGSA phytotoxicity rating (0-100)” value ([10]; 63 g al/ha) was 0, the “DIGSA phytotoxicity rating (0-100)” value ([10]; 500 g al/ha) was 50 and the “AMARE phytotoxicity rating (0-100)” value ([11]; 63 g al/ha) was 100. The “AMARE phytotoxicity rating (0-100)” value ([11]; 500 g al/ha) was 100, the “SORHA phytotoxicity rating (0-100)” value ([12]; 63 g al/ha) was 0 and the “SORHA phytotoxicity rating (0-100)” value ([12]; 500 g al/ha) was 70. For the same compound, the “phytotoxicity rating SETVI” value ([13]; 125 g ai/ha) was 70, the “phytotoxicity rating SETVI” value ([13]; 500 g ai/ha) was 90 and the “phytotoxicity rating CASOB” value ([14]; 125 g ai/ha) was 70. For the same compound, the “phytotoxicity rating CASOB” value ([14]; 500 g ai/ha) was 100, the “phytotoxicity rating CHEAL” value ([15]; 125 g ai/ha) was 100 and the “phytotoxicity rating CHEAL” value ([15]; 500 g ai/ha) was 100. For the same compound, the “phytotoxicity rating ABUTH” value ([16]; 125 g ai/ha) was 100, the “phytotoxicity rating ABUTH” value ([16]; 500 g ai/ha) was 100 and the “phytotoxicity rating IPOHE” value ([17]; 125 g ai/ha) was 30. For the same compound, the “phytotoxicity rating IPOHE” value ([17]; 500 g ai/ha) was 100, the “phytotoxicity rating AMBEL” value ([18]; 125 g ai/ha) was 70 and the “phytotoxicity rating AMBEL” value ([18]; 500 g ai/ha) was 100. The “phytotoxicity rating ECHCG” value ([19]; 125 g ai/ha) was 100, the “phytotoxicity rating ECHCG” value ([19]; 500 g ai/ha) was 100 and the “phytotoxicity rating DIGSA” value ([20]; 125 g ai/ha) was 60. The “phytotoxicity rating DIGSA” value ([20]; 500 g ai/ha) was 99, the “phytotoxicity rating AMARE” value ([21]; 125 g ai/ha) was 90 and the “phytotoxicity rating AMARE” value ([21]; 500 g ai/ha) was 100. The “phytotoxicity rating SORHA” value ([22]; 125 g ai/ha) was 20, the “phytotoxicity rating SORHA” value ([22]; 500 g ai/ha) was 70 and the “crop damage rating SOY” value ([23]; 125 g ai/ha) was 0. The “crop damage rating SOY” value ([23]; 500 g ai/ha) was 20, the “AMBEL phytotoxicity rating (0-100)” value ([24]; 63 g al/ha) was 60 and the “AMBEL phytotoxicity rating (0-100)” value ([24]; 500 g al/ha) was 80. The “SOY crop damage rating (0-100)” value ([25]; 63 g al/ha) was 20 and the “SOY crop damage rating (0-100)” value ([25]; 500 g al/ha) was 70.
